Data taken from patent US8722901B2, “Carboxy oxazole or thiazole compounds as DGAT-1 inhibitors useful for the treatment of obesity” (Piramal Enterprises Limited, priority 2009, dated 2014).

target: T1, hDGAT-1 (Homo sapiens, UniProt O75907); assay: In-vitro DGAT-1 assay (14C oleoyl CoA, microsomes from Sf9 cells); format: biochemical; conditions: 1 μM compound; hDGAT-1 containing microsomes from Sf9 cells
T1 construct: host or cells: Sf9 insect cells (baculovirus); microsomal fraction
T1 sequence (O75907 1-488): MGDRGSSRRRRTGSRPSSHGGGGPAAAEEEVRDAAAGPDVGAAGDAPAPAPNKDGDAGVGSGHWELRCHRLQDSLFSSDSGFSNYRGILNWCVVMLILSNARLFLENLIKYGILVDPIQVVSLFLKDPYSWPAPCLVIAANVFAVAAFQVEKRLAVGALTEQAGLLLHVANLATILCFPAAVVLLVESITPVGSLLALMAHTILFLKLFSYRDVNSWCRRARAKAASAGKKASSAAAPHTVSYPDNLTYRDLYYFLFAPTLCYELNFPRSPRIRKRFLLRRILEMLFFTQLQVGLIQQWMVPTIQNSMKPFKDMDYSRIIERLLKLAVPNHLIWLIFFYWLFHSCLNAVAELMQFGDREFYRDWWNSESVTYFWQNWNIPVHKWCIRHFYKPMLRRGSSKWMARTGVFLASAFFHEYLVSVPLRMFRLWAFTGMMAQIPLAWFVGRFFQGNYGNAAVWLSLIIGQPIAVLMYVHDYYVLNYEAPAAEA
Procedure: In-Vitro Protocol for DGAT-1 Assay
Sf9 Culture and Treatment
Sf9 cells were grown in T25 flasks containing Graces's Insect media (Invitrogen, US) with 10% FBS (Hyclone, US) with antibiotic (100 units/mL penicillin, 100 μg/mL streptomycin sulphate, 0.25 μg/mL amphotericin B as Fungizone) grown in a 27° C. incubator.
hDGAT-10RF expression clone (RZPDo839C09146 in pDEST vector) was obtained from RZPD, Germany. hDGAT-1 bacmid DNA was obtained by transformation of the hDGAT expression clone into DH10Bac E. coli competent cells. Approximately 1 μg of hDGAT-1 bacmid DNA was infected into Sf9 cells with Cellfectin (Invitrogen, US) reagent. Following infection, Sf9 cells were incubated at 27° C. for 30 minutes. Five hours after infection, the media was replaced with growth media containing antibiotic (100 units/mL penicillin, 100 μg/mL streptomycin sulphate, 0.25 μg/mL amphotericin B as Fungizone) and incubated at 27° C. for 72 hours. The supernatant containing the virus was centrifuged at 1500 g for 5 minutes, passed through 0.22 μm filter, and subsequently stored at 4° C. The virus was further amplified three more times by re-infection of Sf9 cells and the viral titer was determined by plaque assay.
Preparation of DGAT-1 Microsomes from Sf9 Cells
Sf9 cells were seeded in spinner flasks on day 0 at a cell density of 1×10^6 and infected on day 1 with hDGAT-1 baculovirus at a multiplicity of infection (MOI) of 5 and a cell density of 2×10^6. On day 3 (or 66-72 hours), cells were harvested and centrifuged at 2500 g for 10 minutes. Pellet was resuspended in lysis buffer (100 mM sucrose, 50 mM KCl, 40 mM KH2PO4, 30 mM EDTA, pH 7.2) and passed through 21-gauge needle approximately 10 times. […] The supernatant was subjected to centrifugation at 35,000 rpm in a Beckman Ti-45 rotor at 4° C. for 1 hour. The resultant pellet containing the microsomes were resuspended overnight in 1 mL of lysis buffer and total protein concentration was estimated using Bradford Reagent (Sigma, US). Microsomes were aliquoted and stored at −80° C.
Measurement of DGAT-1 Activity
Frozen aliquots of hDGAT-1 containing microsomes were thawed (5-10 mg/mL total protein) on ice and diluted to a working stock of 1 mg/mL with DGAT Assay Buffer (DAB).
The assay was performed in duplicates in a reaction volume of 100 μL. […] Procedure:
The reaction was started by the addition of […] of 1 mg/mL of microsomes (iv) to the mixture and incubated at 37° C. for 10 minutes. […] The mixture was vortexed and the triglycerides formed were extracted into the organic heptane phase.

For `CC(C)C(NC(=O)c1nc(-c2ccc(NC(=O)c3ccc(-c4ccccc4)cc3)cc2)cs1)C(=O)O` (stereo not shown) [Example 36, 2-(4-(4-Biphenyl-4-ylcarboxamidophenyl)thiazole-2-carboxamido)-3-methylbutanoic acid], the “% inhibition of hDGAT-1 at 1 μM” value was “+ (>0% Inhibition ≦50)”.
For `CC(C)C(NC(=O)c1ncc(-c2ccc(NC(=O)c3ccc(-c4ccccc4)cc3)cc2)s1)C(=O)O` (stereo not shown) [Example 48, 2-(5-(4-biphenyl-4-ylcarboxamidophenyl)thiazole-2-carboxamido)-3-methylbutanoic acid], the “% inhibition of hDGAT-1 at 1 μM” value was “++ (>50% Inhibition ≦100)”.
For `CC(C)C(C(=O)O)N(C)C(=O)c1ncc(-c2ccc(NC(=O)c3ccc(-c4ccccc4)cc3)cc2)s1` (stereo not shown) [Example 42, 2-(5-(4-Biphenyl-4-ylcarboxamidophenyl)-N-methylthiazole-2-carboxamido)-3-methylbutanoic acid], the “% inhibition of hDGAT-1 at 1 μM” value was “++ (>50% Inhibition ≦100)”.

`CC(C)C(NC(=O)c1nc(-c2ccc(NS(=O)(=O)c3ccc(Cl)cc3Cl)cc2)cs1)C(=O)O` (stereo not shown) [Example 46, 2-(4-(4-(2,4-Dichlorophenylsulfonamido)phenyl)thiazole-2-carboxamido)-3-methylbutanoic acid] and `CC(C)C(NC(=O)c1nc(-c2ccc(NC(=O)Nc3ccccc3Cl)cc2)cs1)C(=O)O` (stereo not shown) [Example 24, 2-(4-(4-(3-(2-Chlorophenyl)ureido)phenyl)thiazole-2-carboxamido)-3-methylbutanoic acid] fall in the same range of inhibition at 1 µM: 0 to 50% for the first, 0 to 50% for the second.

`CC(C)C(NC(=O)c1nc(-c2ccc(NC(=O)c3ccc(C(C)(C)C)cc3)cc2)cs1)C(=O)O` (stereo not shown) [Example 28, 2-(4-(4-(4-tert-butylbenzamido)phenyl)thiazole-2-carboxamido)-3-methylbutanoic acid] and `CCCCCc1ccc(C(=O)Nc2ccc(-c3csc(C(=O)NC(C(=O)O)C(C)C)n3)cc2)cc1` (stereo not shown) [Example 38, 3-Methyl-2-(4-(4-(4-pentylbenzamido)phenyl)thiazole-2-carboxamido) butanoic acid] fall in the same range of inhibition at 1 µM: 0 to 50% for the first, 0 to 50% for the second.

`CC(C)C(NC(=O)c1ncc(-c2ccc(NC(=O)C3Cc4ccccc4C3)cc2)s1)C(=O)O` (stereo not shown) [Example 52, 2-(5-(4-(2,3-dihydro-1H-indene-2-carboxamido)phenyl)thiazole-2-carboxamido)-3-methylbutanoic acid] and `CC(C)[C@H](NC(=O)c1ncc(-c2ccc(NC(=O)Nc3cccc(Cl)c3)cc2)s1)C(=O)O` [Example 70, (S)-2-(5-(4-(3-(3-chlorophenyl)ureido)phenyl)thiazole-2-carboxamido)-3-methylbutanoic acid] fall in the same range of inhibition at 1 µM: 50 to 100% for the first, 50 to 100% for the second.

`CC(C)[C@H](NC(=O)c1ncc(-c2ccc(NC(=O)Nc3ccc(C(F)(F)F)cc3Cl)cc2)o1)C(=O)O` [Example 62, (S)-2-(5-(4-(3-(2-chloro-4-(trifluoromethyl)phenyl)ureido)phenyl)oxazole-2-carboxamido)-3-methylbutanoic acid] and `CC(C)[C@H](NC(=O)c1ncc(-c2ccc(NC(=O)Nc3ccc(C(F)(F)F)cc3Cl)cc2)s1)C(=O)O` [Example 72, (S)-2-(5-(4-(3-(2-chloro-4-(trifluoromethyl)phenyl)ureido)phenyl)thiazole-2-carboxamido)-3-methylbutanoic acid] fall in the same range of inhibition at 1 µM: 50 to 100% for the first, 50 to 100% for the second.

Compared with `Cc1ccc(NC(=O)Nc2ccc(-c3csc(C(=O)NC(C(=O)O)C(C)C)n3)cc2)cc1C` (stereo not shown) [Example 32, 2-(4-(4-(3-(3,4-Dimethylphenyl)ureido)phenyl)thiazole-2-carboxamido)-3-methylbutanoic acid], `Cc1ccc(NC(=O)Nc2ccc(-c3cnc(C(=O)NC(C(=O)O)C(C)C)o3)cc2)cc1C` (stereo not shown) [Example 6, 2-(5-(4-(3-(3,4-dimethylphenyl)ureido)phenyl)oxazole-2-carboxamido)-3-methylbutanoic acid] is higher in inhibition at 1 µM: 0 to 50% for the first, 50 to 100% for the second.

`CC(C)C(NC(=O)c1ncc(-c2ccc(N(Cc3ccccc3)Cc3ccccc3)cc2)s1)C(=O)O` (stereo not shown) [Example 93, 2-(5-(4-(dibenzylamino)phenyl)thiazole-2-carboxamido)-3-methylbutanoic acid] and `CC(C)C(NC(=O)c1ncc(-c2ccc(NCc3ccc(F)cc3)cc2)s1)C(=O)O` (stereo not shown) [Example 91, 2-(5-(4-((4-Fluorobenzyl)amino)phenyl)thiazole-2-carboxamido)-3-methylbutanoic acid] fall in the same range of inhibition at 1 µM: 0 to 50% for the first, 0 to 50% for the second.

First: CC(C)C(NC(=O)c1ncc(-c2ccc(NC(=O)Nc3ccc(Cl)cc3Oc3ccccc3)cc2)o1)C(=O)O (stereo not shown) [Example 8, 2-(5-(4-(3-(4-chloro-2-phenoxyphenyl)ureido)phenyl)oxazole-2-carboxamido)-3-methylbutanoic acid]
Second: CC(C)C(NC(=O)c1nc(-c2ccc(NC(=O)Nc3ccc(Cl)cc3Oc3ccccc3)cc2)cs1)C(=O)O (stereo not shown) [Example 34, 2-(4-(4-(3-(4-chloro-2-phenoxyphenyl)ureido)phenyl)thiazole-2-carboxamido)-3-methylbutanoic acid]
The inhibition at 1 µM of the first is higher: 50 to 100% for the first, 0 to 50% for the second.

First: CC(C)C(NC(=O)c1nc(-c2ccc(NC(=O)Nc3ccc(C(F)(F)F)cc3)cc2)cs1)C(=O)O (stereo not shown) [Example 30, 3-methyl-2-(4-(4-(3-(4-(trifluoromethyl)phenyl)ureido)phenyl)thiazole-2-carboxamido)butanoic acid]
Second: CC(C)[C@H](NC(=O)c1ncc(-c2ccc(NC(=O)Nc3ccc(Cl)cc3)cc2)s1)C(=O)O [Example 68, (S)-2-(5-(4-(3-(4-chlorophenyl)ureido)phenyl)thiazole-2-carboxamido)-3-methylbutanoic acid]
The inhibition at 1 µM of the first is lower: 0 to 50% for the first, 50 to 100% for the second.

`CC(C)C(C(=O)O)N(C)C(=O)c1ncc(-c2ccc(NC(=O)c3ccc(C(C)(C)C)cc3)cc2)s1` (stereo not shown) [Example 44, 2-(5-(4-(4-tert-Butylbenzamido)phenyl)-N-methylthiazole-2-carboxamido)-3-methylbutanoic acid] and `CCCCCc1ccc(C(=O)Nc2ccc(-c3cnc(C(=O)N(C)C(C(=O)O)C(C)C)s3)cc2)cc1` (stereo not shown) [Example 40, 3-Methyl-2-(N-methyl-5-(4-(4-pentylbenzamido)phenyl)thiazole-2-carboxamido)butanoic acid] fall in the same range of inhibition at 1 µM: 50 to 100% for the first, 50 to 100% for the second.

`CC(C)[C@H](NC(=O)c1ncc(-c2ccc(NC(=O)Nc3ccc(Cl)cc3F)cc2)o1)C(=O)O` [Example 64, (S)-2-(5-(4-(3-(4-chloro-2-fluorophenyl)ureido)phenyl)oxazole-2-carboxamido)-3-methylbutanoic acid] and `CC(C)[C@H](NC(=O)c1ncc(-c2ccc(NC(=O)Nc3ccc(Cl)cc3)cc2)o1)C(=O)O` [Example 58, (S)-2-(5-(4-(3-(4-chlorophenyl)ureido)phenyl)oxazole-2-carboxamido)-3-methylbutanoic acid] fall in the same range of inhibition at 1 µM: 50 to 100% for the first, 50 to 100% for the second.

`CC(C)[C@H](NC(=O)c1ncc(-c2ccc(NC(=O)Nc3ccc4c(c3)CCC4)cc2)o1)C(=O)O` [Example 56, (S)-2-(5-(4-(3-(2,3-dihydro-1H-inden-5-yl)ureido)phenyl)oxazole-2-carboxamido)-3-methylbutanoic acid] and `CC(C)[C@H](NC(=O)c1ncc(-c2ccc(NC(=O)Nc3ccc(Cl)cc3F)cc2)s1)C(=O)O` [Example 74, (S)-2-(5-(4-(3-(4-chloro-2-fluorophenyl)ureido)phenyl)thiazole-2-carboxamido)-3-methylbutanoic acid] fall in the same range of inhibition at 1 µM: 50 to 100% for the first, 50 to 100% for the second.
